These results are taken from US4581366A, “Aldose reductase inhibition by spiro indoline derivatives” (Imperial Chemical Industries PLC, priority 1983, dated 1986).

The subject of experiment [1] is aldose reductase. Briefly: in vivo aldose reductase inhibition in streptozotocin-diabetic rats (residual sorbitol in sciatic nerve). Also noted: species or system rat. The conditions noted are these: dosed daily for 2-5 days, 2-4 hours after final dose. How it is done: Thus, rats are made diabetic (as evidenced by severe glucosuria being present) by dosing with streptozotocin. The animals are then dosed daily with the test compound for 2-5 days. The animals are then killed 2-4 hours after the final dose and the eye lenses and/or sciatic nerves are removed. After a standard work-up procedure the residual sorbitol levels in each tissue are determined by gas liquid chromatography after conversion to the polytrimethysilyl derivatives. Inhibition of aldose reductase in vivo is then assessed by comparing the residual sorbitol levels in tissues from the dosed diabetic group of rats with those of an undosed group of diabetic rats and an undosed, normal group of rats.
(§1) In the above in vivo test, an effective dose (ED) may be defined as the oral dose at which the residual sorbitol level in the sciatic nerve is reduced to a level similar to that in the sciatic nerve of normal, undosed rats. In this test the novel compound of formula I has an ED of approximately 1.76 mg/kg. as the racemic form and of approximately 0.62 mg/kg. as the dextrorotatory, optically active form.

For experiment [2], the target named is T1, aldose reductase (Bos taurus, UniProt P16116).
T1 construct: partially purified aldose reductase is isolated in known manner from bovine lenses; from tissue; host or cells: bovine lens
Description: in vitro inhibition of partially purified aldose reductase from bovine lenses (reduction of glucose to sorbitol, spectrophotometric). In kind it is biochemical. To be noted: read-out: IC50 (concentration necessary to inhibit to the extent of 50% the enzyme's ability to reduce glucose to sorbitol). On the procedure:
Thus, partially purified aldose reductase is isolated in known manner from bovine lenses. The percentage inhibition of this enzyme's ability in vitro to reduce aldoses to polyhydric alcohols, and particularly to reduce glucose to sorbitol, caused by a test compound is then determined using standard spectrophotometric methods.
as §1

In the case of `O=C1NC(=O)C2(N1)C(=O)N(Cc1ccc(Br)cc1F)c1c(Cl)cccc12` (racemic) [compound of formula I, racemic form, (±)-1'-(4-bromo-2-fluorobenzyl)-7'-chloro-spiro[imidazolidine-4,3'-indoline]-2,2',5-trione], in the experiment on aldose reductase [1], the “effective dose (ED): oral dose at which the residual sorbitol level in the sciatic nerve is reduced to a level similar to that of normal, undosed rats” value is recorded as “approximately 1.76 mg/kg”. Moreover, the IC50 at aldose reductase [2] was ~24 nM.

In the case of `O=C1NC(=O)C2(N1)C(=O)N(Cc1ccc(Br)cc1F)c1c(Cl)cccc12` (single isomer, unassigned; (+)) [(+)-1'-(4-bromo-2-fluorobenzyl)-7'-chloro-spiro[imidazolidine-4,3'-indoline]-2,2',5-trione], the “effective dose (ED): oral dose at which the residual sorbitol level in the sciatic nerve is reduced to a level similar to that of normal, undosed rats” value in the experiment with aldose reductase [1] was “approximately 0.62 mg/kg”. In addition, on aldose reductase [2], the IC50 is ~9.8 nM.
